Values of other authors as cited in patent US10391330B2, “Non-invasive systems and methods for in-situ photobiomodulation” (priority 2008, dated 2019).

Legend:
T cells = conditions: combination with UVA radiation
[1] = clinical use

duration of skin photosensitivity [1]	SMILES	apoptosis of the treated T cells (T cells)
–	COc1c2occc2cc2ccc(=O)oc12 [Compound 8-MOP, 8-methoxypsoralen]	causes apoptosis
approximately 2 weeks	Oc1cccc(-c2c3nc(c(-c4cccc(O)c4)c4ccc([nH]4)c(-c4cccc(O)c4)c4nc(c(-c5cccc(O)c5)c5ccc2[nH]5)CC4)C=C3)c1 [Foscan, Tetra (m-hydroxyphenyl) chlorin]	–
